According to BindingDB's records for doi:10.1021/acs.jmedchem.9b00742 (Leiden University, 2019):
pIC50, pKi: −log10 of the molar value.

How the values were obtained:
[1] = biological target: T1, C-C chemokine receptor type 2 (Homo sapiens, UniProt P41597); assay: Antagonist activity at CCR2b in human THP1 cells assessed as inhibition of human MCP1 induced calcium flux by fluo-4 dye based fluorescence assay
[2] = biological target: T1, C-C chemokine receptor type 2; assay: Non-competitive insurmountable antagonist activity at human CCR2 expressed in human U2OS cell membranes assessed as pEC50 for CCL2-stimulated [35S]GTPgammaS binding at 30 nM preincubated for 30 mins followed by [35S]GTPgammaS addition and measured after 90 mins (Rvb = 8.10 +/- 0.06 No_unit)
[3] = biological target: T2, C-C chemokine receptor type 5 (Homo sapiens, UniProt P51681); assay: Non-competitive insurmountable antagonist activity at human CCR5 expressed in human U2OS cell membranes assessed as EC50 for CCL3-stimulated [35S]GTPgammaS binding at 100 nM preincubated for 30 mins followed by [35S]GTPgammaS addition and measured after 90 mins (Rvb = 4 nM)
T2 sequence (P51681 whole entry): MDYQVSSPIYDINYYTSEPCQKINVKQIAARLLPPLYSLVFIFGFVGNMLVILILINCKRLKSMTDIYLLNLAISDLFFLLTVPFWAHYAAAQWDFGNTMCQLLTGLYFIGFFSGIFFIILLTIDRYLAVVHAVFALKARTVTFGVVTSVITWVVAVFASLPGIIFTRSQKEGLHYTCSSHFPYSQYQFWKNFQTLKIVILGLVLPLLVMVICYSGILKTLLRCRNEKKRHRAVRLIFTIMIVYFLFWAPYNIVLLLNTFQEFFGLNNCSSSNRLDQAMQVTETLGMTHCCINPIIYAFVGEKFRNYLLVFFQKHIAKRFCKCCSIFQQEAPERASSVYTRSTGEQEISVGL

[4] = biological target: T2, C-C chemokine receptor type 5; assay: Non-competitive insurmountable antagonist activity at human CCR5 expressed in human U2OS cell membranes assessed as pEC50 for CCL3-stimulated [35S]GTPgammaS binding at 100 nM preincubated for 30 mins followed by [35S]GTPgammaS addition and measured after 90 mins (Rvb = 8.42 +/- 0.06 No_unit)
[5] = biological target: T1, C-C chemokine receptor type 2; assay: Non-competitive insurmountable antagonist activity at human CCR2 expressed in human U2OS cell membranes assessed as EC50 for CCL2-stimulated [35S]GTPgammaS binding at 10 nM preincubated for 30 mins followed by [35S]GTPgammaS addition and measured after 90 mins (Rvb = 8 nM)
[6] = biological target: T2, C-C chemokine receptor type 5; assay: Non-competitive insurmountable antagonist activity at human CCR5 expressed in human U2OS cell membranes assessed as EC50 for CCL3-stimulated [35S]GTPgammaS binding at 300 nM preincubated for 30 mins followed by [35S]GTPgammaS addition and measured after 90 mins (Rvb = 4 nM)
[7] = biological target: T2, C-C chemokine receptor type 5; assay: Non-competitive insurmountable antagonist activity at human CCR5 expressed in human U2OS cell membranes assessed as EC50 for CCL3-stimulated [35S]GTPgammaS binding at 1000 nM preincubated for 30 mins followed by [35S]GTPgammaS addition and measured after 90 mins (Rvb = 4 nM)
[8] = biological target: T2, C-C chemokine receptor type 5; assay: Non-competitive insurmountable antagonist activity at human CCR5 expressed in human U2OS cell membranes assessed as pEC50 for CCL3-stimulated [35S]GTPgammaS binding at 300 nM preincubated for 30 mins followed by [35S]GTPgammaS addition and measured after 90 mins (Rvb = 8.42 +/- 0.06 No_unit)
[9] = biological target: T1, C-C chemokine receptor type 2; assay: Non-competitive insurmountable antagonist activity at human CCR2 expressed in human U2OS cell membranes assessed as pEC50 for CCL2-stimulated [35S]GTPgammaS binding at 10 nM preincubated for 30 mins followed by [35S]GTPgammaS addition and measured after 90 mins (Rvb = 8.10 +/- 0.06 No_unit)
[10] = biological target: T1, C-C chemokine receptor type 2; assay: Non-competitive insurmountable antagonist activity at human CCR2 expressed in human U2OS cell membranes assessed as pEC50 for CCL2-stimulated [35S]GTPgammaS binding at 100 nM preincubated for 30 mins followed by [35S]GTPgammaS addition and measured after 90 mins (Rvb = 8.10 +/- 0.06 No_unit)
[11] = biological target: T2, C-C chemokine receptor type 5; assay: Non-competitive insurmountable antagonist activity at human CCR5 expressed in human U2OS cell membranes assessed as pEC50 for CCL3-stimulated [35S]GTPgammaS binding at 30 nM preincubated for 30 mins followed by [35S]GTPgammaS addition and measured after 90 mins (Rvb = 8.42 +/- 0.06 No_unit)
[12] = biological target: T1, C-C chemokine receptor type 2; assay: Non-competitive insurmountable antagonist activity at human CCR2 expressed in human U2OS cell membranes assessed as EC50 for CCL2-stimulated [35S]GTPgammaS binding at 1 nM preincubated for 30 mins followed by [35S]GTPgammaS addition and measured after 90 mins (Rvb = 8 nM)
[13] = biological target: T1, C-C chemokine receptor type 2; assay: Non-competitive insurmountable antagonist activity at human CCR2 expressed in human U2OS cell membranes assessed as pEC50 for CCL2-stimulated [35S]GTPgammaS binding at 1 nM preincubated for 30 mins followed by [35S]GTPgammaS addition and measured after 90 mins (Rvb = 8.10 +/- 0.06 No_unit)
[14] = biological target: T1, C-C chemokine receptor type 2; assay: Non-competitive insurmountable antagonist activity at human CCR2 expressed in human U2OS cell membranes assessed as pEC50 for CCL2-stimulated [35S]GTPgammaS binding at 3 nM preincubated for 30 mins followed by [35S]GTPgammaS addition and measured after 90 mins (Rvb = 8.10 +/- 0.06 No_unit)
[15] = biological target: T1, C-C chemokine receptor type 2; assay: Non-competitive insurmountable antagonist activity at human CCR2 expressed in human U2OS cell membranes assessed as EC50 for CCL2-stimulated [35S]GTPgammaS binding at 3 nM preincubated for 30 mins followed by [35S]GTPgammaS addition and measured after 90 mins (Rvb = 8 nM)
[16] = biological target: T1, C-C chemokine receptor type 2; assay: Displacement of [3H]-CCR2-RA-[R] from human CCR2 expressed in human U2OS cells incubated for 2 hrs by scintillation spectrometric method

T1 sequence (P41597 whole entry): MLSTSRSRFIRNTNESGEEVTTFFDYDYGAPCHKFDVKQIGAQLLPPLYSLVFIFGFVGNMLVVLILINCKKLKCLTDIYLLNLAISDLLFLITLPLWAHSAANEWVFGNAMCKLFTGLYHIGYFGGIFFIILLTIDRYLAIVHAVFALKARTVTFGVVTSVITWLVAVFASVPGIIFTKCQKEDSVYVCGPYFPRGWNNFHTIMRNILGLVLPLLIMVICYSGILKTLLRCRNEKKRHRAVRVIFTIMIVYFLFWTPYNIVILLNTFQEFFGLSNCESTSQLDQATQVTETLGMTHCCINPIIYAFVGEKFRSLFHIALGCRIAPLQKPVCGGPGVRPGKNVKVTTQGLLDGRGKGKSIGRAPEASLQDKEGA

Structure (SMILES) | EC50 [3] | EC50 [4] | EC50 [5] | EC50 [6] | EC50 [8] | EC50 [9] | pKi [16] | further results
O=c1c(Cc2cccc(Cl)c2)c(C2CC2)[nH]c2ncnn12 |  |  |  |  |  |  |  | pIC50 [1]: 7.80
CC(C)c1[nH]c2nc(N)nn2c(=O)c1Cc1cccc(Cl)c1Cl | 5.0 nM | 4.5 nM | 13 nM | 8.0 nM | 7.2 nM | 13 nM |  | EC50 [2]: 25 nM; EC50 [7]: 9.0 nM; EC50 [10]: 54 nM
CC(C)c1[nH]c2nc(N)nn2c(=O)c1Cc1ccc(Cl)c(Br)c1 | 6.0 nM | 6.2 nM | 148 nM | 9.0 nM | 8.9 nM | 135 nM |  | EC50 [11]: 5.0 nM; EC50 [12]: 13 nM; EC50 [13]: 12 nM; EC50 [14]: 30 nM; EC50 [15]: 32 nM
Nc1nc2[nH]c(C3CC3)c(Cc3cccc(F)c3)c(=O)n2n1 |  |  |  |  |  |  | 8.53 | 
Nc1nc2[nH]c(-c3ccccc3)c(Cc3cccc(Cl)c3)c(=O)n2n1 |  |  |  |  |  |  | 7.64 | 
Nc1nc2[nH]c(C3CC3)c(Cc3ccc(Cl)c(Cl)c3)c(=O)n2n1 |  |  |  |  |  |  | 9.35 | 
